Data: patent US7354948B2, “Methods for treatment of chronic uveitis using cyclopropyl-n-{2-[(1S)-1-(3-ethoxy-4-methoxyphenyl)-2-(methylsulfonyl)ethyl]-3-oxoisoindoline-4-yl}carboxamide” (Celgene Corporation, priority 2002, dated 2008)

Columns and labels:
anesthetized dogs = assay: Toxicology study: cardiovascular and respiratory function in anesthetized dogs; type: in vivo, Beagle dogs
Description: The effects of 3-(3,4-dimethoxy-phenyl)-3-(1-oxo-1,3-dihydro-isoindol-2-yl)-propionamide on cardiovascular and respiratory function are investigated in anesthetized dogs. Two groups of Beagle dogs (2/sex/group) are used. One group receives three doses of vehicle only and the other receives three ascending doses of the compound (200, 400, and 800 mg/kg). In all cases, doses of the compound or vehicle are successively administered via infusion through the jugular vein separated by intervals of at least 30 minutes.

[1] = test system: TNF-α production following LPS-stimulation of human PBMC and human whole blood; assay: Modulation of cytokine production, in vitro studies; type: cell-based; details: compared with thalidomide
Excerpt: In a specific embodiment, the pharmacological properties of 3-(3,4-dimethoxy-phenyl)-3-(1-oxo-1,3-dihydro-isoindol-2-yl)-propionamide are characterized in in vitro studies. Studies examine the effects of the compound on the production of various cytokines. Inhibition of TNF-α production following LPS-stimulation of human PBMC and human whole blood by the compound is investigated in vitro. […] The pharmacological effects of 3-(3,4-dimethoxy-phenyl)-3-(1-oxo-1,3-dihydro-isoindol-2-yl)-propionamide may derive from its action as an inhibitor of the generation of inflammatory cytokines.

## COc1ccc(C(CC(N)=O)N2Cc3ccccc3C2=O)cc1OC (stereo not shown) [3-(3,4-dimethoxy-phenyl)-3-(1-oxo-1,3-dihydro-isoindol-2-yl)-propionamide]
Anesthetized dogs; all doses (200, 400, and 800 mg/kg), infusion through the jugular vein, compared to vehicle control group
  cardiovascular and respiratory changes: minimal
Anesthetized dogs; following the low dose, only statistically significant difference between vehicle and treatment groups
  arterial blood pressure: small increase
Anesthetized dogs; higher doses
  arterial blood pressure effect: not seen
[1]
  pharmacological activity profile, potency relative to thalidomide: five to fifty times more potent than thalidomide
